From BindingDB's records for patent US20240343694 (Korea Reserarch Institute of Chemical Technology, 2024)

Experiments:
[1] = biological target: T1, Epidermal growth factor receptor [DEL746-750] (Homo sapiens, UniProt P00533); assay: Inhibitory Activity of Compounds Against EGFR Mutant Enzyme
T1 construct: gene EGFR
Protocol: (§1) The activity of the compounds of the present invention against EGFR mutant enzymes was measured using the HTRF system purchased from Cisbio as follows. For an EGFR mutant enzyme, the EGFR del19 enzyme was a recombinant protein purchased from Carna Biosciences, and the EGFR A763_Y764insFHEA enzyme was a recombinant protein purchased from SignalChem, respectively.The composition of the assay buffer used for activity measurement was 50 mM tris-HCl pH 7.5, 100 mM NaCl, 7.5 mM MgCl2, 3 mM KCl, 0.01% tween 20, 0.1% BSA, and 1 mM DTT. An enzymatic reaction was performed using a peptide substrate labeled with ATP at a concentration of […] and biotin at a concentration of […]. The analysis of the inhibitory effect of the compounds on EGFR activity was performed according to the following method.Component 1:4 μL of EGFR mutant enzymeComponent 2:2 μL of compound solutionComponent 3:4 μL of ATP and a biotin labeled peptideThe enzyme reaction begins by first mixing component 1 and component 2 and then adding component 3 thereto. After the reaction at 37° C. for 2 hours, […] of a measurement solution consisting of streptavidin-XL665 and a europium-labeled anti-phosphotyrosine antibody purchased from Cisbio was added to the enzyme reaction solution and reacted at room temperature for 1 hour. Finally, the ratio of fluorescence values at 615 nm and 665 nm was measured using Perkin-Elmer's Envision instrument to calculate enzyme activity and confirm the inhibitory ability of the compounds.

[2] = biological target: T2, Epidermal growth factor receptor [1-763,'FHEA',764-1210] (UniProt P00533); assay: as above
T2 construct: 1-763,'FHEA',764-1210
Protocol: as §1

[3] = biological target: T3, Receptor tyrosine-protein kinase erbB-2 [1-775,'YVMA',776-1255] (Homo sapiens, UniProt P04626); assay: Inhibitory Activity of Compounds Against HER2 A775_G776insYVMA mutant enzyme
T3 construct: 1-775,'YVMA',776-1255
Protocol: The activity of the compounds of the present invention against HER mutant enzymes was measured using the HTRF system purchased by Cisbio as follows. As a HER2 mutant enzyme, the HER2 A775_G776insYVMA mutant enzyme was used by purchasing a recombinant protein provided by Carna Biosciences.The composition of the assay buffer used for activity measurement was 50 mM tris-HCl pH 7.5, 100 mM NaCl, 7.5 mM MgCl2, 3 mM KCl, 0.01% tween 20, 0.1% BSA, and 1 mM DTT. In addition thereto, the enzymatic reaction was performed using a peptide substrate labeled with ATP at a concentration of […] and biotin at a concentration of […]. The analysis of the activity inhibitory effect of the compounds on HER2 A775_G776insYVMA mutation was performed according to the following method.Component 1:4 μL of HER2 A775_G776insYVMA mutant enzymeComponent 2:2 μL of compound solutionComponent 3:4 μL of ATP and a biotin labeled peptideThe enzyme reaction begins by first mixing component 1 and component 2 and then adding component 3 thereto. After the reaction at 37° C. for 2 hours, […] of a measurement solution consisting of streptavidin-XL665 and a europium-labeled anti-phosphotyrosine antibody purchased from Cisbio was added to the enzyme reaction solution and reacted at room temperature for 1 hour. Finally, the ratio of fluorescence values at 615 nm and 665 nm was measured using Perkin-Elmer's Envision equipment to calculate enzyme activity and confirm the inhibitory ability of the compounds.

T1 sequence (P00533 with tags, fused parts or gaps DEL746-750 limits assumed, stated change not applied): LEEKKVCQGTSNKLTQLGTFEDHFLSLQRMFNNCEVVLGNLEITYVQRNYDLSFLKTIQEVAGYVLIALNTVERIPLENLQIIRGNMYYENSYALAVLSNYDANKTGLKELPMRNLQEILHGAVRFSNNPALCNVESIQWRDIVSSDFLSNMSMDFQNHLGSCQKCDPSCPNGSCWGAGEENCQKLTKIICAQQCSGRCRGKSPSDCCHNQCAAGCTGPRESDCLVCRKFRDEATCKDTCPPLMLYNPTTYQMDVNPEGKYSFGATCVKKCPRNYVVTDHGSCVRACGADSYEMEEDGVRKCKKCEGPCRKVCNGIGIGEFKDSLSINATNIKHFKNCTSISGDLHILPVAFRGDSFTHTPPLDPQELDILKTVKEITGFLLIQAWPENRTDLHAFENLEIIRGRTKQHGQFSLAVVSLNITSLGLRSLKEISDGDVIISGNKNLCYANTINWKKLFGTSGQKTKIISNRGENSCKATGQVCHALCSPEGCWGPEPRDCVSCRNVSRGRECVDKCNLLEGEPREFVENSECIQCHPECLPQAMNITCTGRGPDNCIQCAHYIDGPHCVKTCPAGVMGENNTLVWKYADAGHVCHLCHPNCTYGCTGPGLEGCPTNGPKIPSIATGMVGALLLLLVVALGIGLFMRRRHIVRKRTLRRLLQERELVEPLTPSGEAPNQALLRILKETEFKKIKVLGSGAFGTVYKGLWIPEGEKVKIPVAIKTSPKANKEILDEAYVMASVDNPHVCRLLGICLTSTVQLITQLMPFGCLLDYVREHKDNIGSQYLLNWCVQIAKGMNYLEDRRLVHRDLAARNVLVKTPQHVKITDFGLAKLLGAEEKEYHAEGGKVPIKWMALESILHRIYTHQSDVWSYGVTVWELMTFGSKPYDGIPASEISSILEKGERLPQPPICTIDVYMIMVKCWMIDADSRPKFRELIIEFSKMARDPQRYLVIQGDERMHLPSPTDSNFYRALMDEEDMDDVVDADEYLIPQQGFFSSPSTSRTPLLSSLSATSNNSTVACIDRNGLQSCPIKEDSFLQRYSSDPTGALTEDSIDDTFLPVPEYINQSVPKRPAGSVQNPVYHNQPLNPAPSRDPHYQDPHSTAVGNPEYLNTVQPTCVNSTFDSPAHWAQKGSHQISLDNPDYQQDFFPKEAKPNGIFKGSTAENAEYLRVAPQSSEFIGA
T3 sequence (P04626 with tags, fused parts or gaps INS775YVMA limits assumed): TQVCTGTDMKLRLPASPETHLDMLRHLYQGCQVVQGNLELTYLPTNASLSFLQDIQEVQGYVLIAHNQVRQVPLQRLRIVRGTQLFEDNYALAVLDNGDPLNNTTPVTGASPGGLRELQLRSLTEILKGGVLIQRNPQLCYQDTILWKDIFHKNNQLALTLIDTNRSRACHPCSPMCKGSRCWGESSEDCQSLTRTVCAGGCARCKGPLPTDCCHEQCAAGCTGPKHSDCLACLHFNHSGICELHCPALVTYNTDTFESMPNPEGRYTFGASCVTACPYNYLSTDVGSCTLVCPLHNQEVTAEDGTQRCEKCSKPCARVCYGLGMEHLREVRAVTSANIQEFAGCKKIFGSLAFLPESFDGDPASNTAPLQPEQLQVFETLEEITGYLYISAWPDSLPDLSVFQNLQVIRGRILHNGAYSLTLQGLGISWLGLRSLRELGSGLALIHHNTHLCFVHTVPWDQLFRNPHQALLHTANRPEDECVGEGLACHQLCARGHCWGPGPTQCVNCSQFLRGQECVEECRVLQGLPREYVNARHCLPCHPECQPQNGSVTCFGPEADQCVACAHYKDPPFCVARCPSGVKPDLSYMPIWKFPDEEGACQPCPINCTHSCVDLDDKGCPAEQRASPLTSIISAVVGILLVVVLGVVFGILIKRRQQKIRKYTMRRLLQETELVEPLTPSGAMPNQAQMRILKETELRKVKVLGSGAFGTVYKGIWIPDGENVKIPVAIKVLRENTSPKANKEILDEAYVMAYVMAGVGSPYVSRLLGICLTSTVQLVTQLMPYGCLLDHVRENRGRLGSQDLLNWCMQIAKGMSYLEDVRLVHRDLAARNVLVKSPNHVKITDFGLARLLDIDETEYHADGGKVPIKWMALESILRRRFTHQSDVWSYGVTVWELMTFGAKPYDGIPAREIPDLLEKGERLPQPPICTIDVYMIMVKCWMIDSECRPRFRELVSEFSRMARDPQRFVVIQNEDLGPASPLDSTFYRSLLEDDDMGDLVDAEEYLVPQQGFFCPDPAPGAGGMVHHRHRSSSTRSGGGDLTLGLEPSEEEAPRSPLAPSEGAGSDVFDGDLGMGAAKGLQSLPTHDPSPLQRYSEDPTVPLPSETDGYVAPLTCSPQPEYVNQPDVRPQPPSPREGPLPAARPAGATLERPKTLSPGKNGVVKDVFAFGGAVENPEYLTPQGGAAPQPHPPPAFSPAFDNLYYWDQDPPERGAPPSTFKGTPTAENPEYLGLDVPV
T2 sequence (P00533 with tags, fused parts or gaps INS763FHEA limits assumed): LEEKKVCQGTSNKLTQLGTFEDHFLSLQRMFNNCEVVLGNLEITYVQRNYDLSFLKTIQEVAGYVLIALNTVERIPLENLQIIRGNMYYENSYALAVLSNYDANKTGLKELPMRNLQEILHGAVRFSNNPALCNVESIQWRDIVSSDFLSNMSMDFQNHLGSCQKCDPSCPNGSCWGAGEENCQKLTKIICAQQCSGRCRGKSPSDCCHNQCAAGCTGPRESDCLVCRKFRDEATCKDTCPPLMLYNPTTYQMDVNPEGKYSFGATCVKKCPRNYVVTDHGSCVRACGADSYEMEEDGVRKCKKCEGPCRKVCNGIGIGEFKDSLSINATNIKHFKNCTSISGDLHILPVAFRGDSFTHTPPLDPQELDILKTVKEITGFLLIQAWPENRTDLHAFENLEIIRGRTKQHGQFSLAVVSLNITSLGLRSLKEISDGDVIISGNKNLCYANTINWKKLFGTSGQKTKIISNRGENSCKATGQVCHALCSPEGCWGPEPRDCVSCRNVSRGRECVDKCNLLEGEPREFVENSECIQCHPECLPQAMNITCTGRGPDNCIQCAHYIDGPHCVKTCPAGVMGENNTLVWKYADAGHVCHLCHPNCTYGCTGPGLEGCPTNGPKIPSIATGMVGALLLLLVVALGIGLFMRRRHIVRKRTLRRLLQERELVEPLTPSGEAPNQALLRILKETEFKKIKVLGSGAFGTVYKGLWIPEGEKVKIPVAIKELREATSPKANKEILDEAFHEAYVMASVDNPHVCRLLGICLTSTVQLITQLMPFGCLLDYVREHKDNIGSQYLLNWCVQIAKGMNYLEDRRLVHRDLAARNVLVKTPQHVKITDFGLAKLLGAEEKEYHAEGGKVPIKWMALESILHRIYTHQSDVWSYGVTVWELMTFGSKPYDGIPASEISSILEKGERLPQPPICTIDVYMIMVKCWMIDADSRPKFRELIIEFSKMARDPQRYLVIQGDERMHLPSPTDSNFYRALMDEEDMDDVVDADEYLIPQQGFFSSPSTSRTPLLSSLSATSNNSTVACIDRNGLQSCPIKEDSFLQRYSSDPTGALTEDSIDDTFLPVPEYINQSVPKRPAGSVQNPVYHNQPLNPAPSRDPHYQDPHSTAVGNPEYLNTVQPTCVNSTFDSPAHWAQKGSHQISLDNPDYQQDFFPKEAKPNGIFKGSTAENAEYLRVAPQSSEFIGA

Structure (SMILES)	IC50 [1] [nM]	IC50 [2] [nM]	IC50 [3] [nM]
Cc1ccc(S(=O)(=O)Nc2ccccc2Nc2nc(Cl)ncc2F)cc1 [US20240343694, Example 23]	< 1	3	30
Cc1cnc(Cl)nc1Nc1ccccc1NS(C)(=O)=O [US20240343694, Example 24]	< 1	3	27
Cc1ccc(S(=O)(=O)Nc2ccccc2Nc2nc(Cl)ncc2C)cc1 [US20240343694, Example 25]	< 1	< 1	6
CCCS(=O)(=O)Nc1ccccc1Nc1nc(Cl)ncc1C [US20240343694, Example 26]	4	200	80
CCS(=O)(=O)Nc1ccccc1Nc1nc(Cl)ncc1C [US20240343694, Example 27]	3	9	30
Cc1cnc(Cl)nc1Nc1ccccc1NS(=O)(=O)c1ccccc1 [US20240343694, Example 28]	< 1	8	70
C=CC(=O)Nc1cc(N)c(OC)cc1N(C)CCN1CCCC1 [US20240343694, Example 29]	< 1	< 1	5
C=CC(=O)Nc1cc(N)c(OC)cc1OCCN1CCCC1 [US20240343694, Example 30]	< 1	< 1	4
C=CC(=O)Nc1cc(N)c(OC)cc1N(C)CCN1CCCCC1 [US20240343694, Example 31]	< 1	< 1	0.3
C=CC(=O)Nc1cc(N)c(OC)cc1N(C)CCN(C(=O)OCc1ccccc1)C(C)C [US20240343694, Example 32]	< 1	1	8
C=CC(=O)Nc1cc(Nc2ncc(Cl)c(Nc3ccccc3NS(C)(=O)=O)n2)c(OC)cc1N(C)CCN(C(=O)OCc1ccccc1)C(C)C [US20240343694, Example 33]	< 1	< 1	7
C=CC(=O)Nc1cc(N)c(OC)cc1N(C)CCN(C)C(=O)OCc1ccccc1 [US20240343694, Example 34]	< 1	1	20
C=CC(=O)Nc1cc(Nc2ncc(Cl)c(Nc3ccccc3NS(C)(=O)=O)n2)c(OC)cc1N(C)CCN(C)C(=O)OCc1ccccc1 [US20240343694, Example 35]	< 1	3	27
COc1cc(N2CCOCC2)c(N)cc1Nc1ncc(Cl)c(Nc2ccccc2NS(C)(=O)=O)n1 [US20240343694, Example 36]	< 1	1	10
COc1cc(N2CCN(C)CC2)c(N)cc1Nc1ncc(Cl)c(Nc2ccccc2NS(C)(=O)=O)n1 [US20240343694, Example 37]	< 1	2	26
COc1cc(N(C)CCN(C)C)c(N)cc1Nc1ncc(Cl)c(Nc2ccccc2NS(C)(=O)=O)n1 [US20240343694, Example 38]	< 1	2	14
CN(c1ccccc1Nc1nc(Cl)ncc1Cl)S(C)(=O)=O [US20240343694, Example 39]	< 1	< 1	8
CCS(=O)(=O)N(C)c1ccccc1Nc1nc(Cl)ncc1Cl [US20240343694, Example 40]	< 1	1	4
CCN(c1ccccc1Nc1nc(Cl)ncc1Cl)S(C)(=O)=O [US20240343694, Example 41]	< 1	1	9
CC(C)N(c1ccccc1Nc1nc(Cl)ncc1Cl)S(C)(=O)=O [US20240343694, Example 42]	< 1	< 1	6
CCN(c1ccccc1Nc1nc(Cl)ncc1Cl)S(=O)(=O)CC [US20240343694, Example 43]	< 1	< 1	8
CS(=O)(=O)Nc1c(Cl)cccc1Nc1nc(Cl)ncc1Cl [US20240343694, Example 44]	< 1	< 1	6

Structure (SMILES)	IC50 [1] [nM]	IC50 [2] [nM]	IC50 [3] [nM]
CN(c1c(Cl)cccc1Nc1nc(Cl)ncc1Cl)S(C)(=O)=O [US20240343694, Example 45]	< 1	< 1	8
Cc1cccc(Nc2nc(Cl)ncc2Cl)c1NS(C)(=O)=O [US20240343694, Example 46]	< 1	< 1	2
CC(C)c1cccc(Nc2nc(Cl)ncc2Cl)c1N(C)S(C)(=O)=O [US20240343694, Example 47]	< 1	< 1	6
Cc1cccc(Nc2nc(Cl)ncc2Cl)c1N(C)S(C)(=O)=O [US20240343694, Example 48]	3	7	20
CCN(c1c(C)cccc1Nc1nc(Cl)ncc1Cl)S(C)(=O)=O [US20240343694, Example 49]	0.1	10	60
CCc1cccc(Nc2nc(Cl)ncc2Cl)c1NS(C)(=O)=O [US20240343694, Example 50]	< 1	3	60
CCc1cccc(Nc2nc(Cl)ncc2Cl)c1N(C)S(C)(=O)=O [US20240343694, Example 51]	< 1	< 1	30
CCc1cccc(Nc2nc(Cl)ncc2Cl)c1NS(=O)(=O)CC [US20240343694, Example 52]	< 1	< 1	4
Cc1ccc(Nc2nc(Cl)ncc2Cl)c(N(C)S(C)(=O)=O)c1C [US20240343694, Example 53]	–	–	10
Cc1ccc(Nc2nc(Cl)ncc2Cl)c(NS(C)(=O)=O)c1C [US20240343694, Example 54]	< 1	< 1	10
Cc1ccc(Nc2nc(Cl)ncc2Cl)c(N(C)S(C)(=O)=O)c1 [US20240343694, Example 55]	< 1	< 1	< 1
Cc1ccc(Nc2nc(Cl)ncc2Cl)c(NS(C)(=O)=O)c1 [US20240343694, Example 56]	< 1	< 1	< 1
CS(=O)(=O)N1CCCc2cccc(Nc3nc(Cl)ncc3Cl)c21 [US20240343694, Example 57]	< 1	< 1	< 1
C=CC(=O)Nc1cc(Nc2ncc(Cl)c(Nc3cccc4c3N(S(C)(=O)=O)CCC4)n2)c(OC)cc1N(C)CCN(C)C(=O)OC(C)(C)C [US20240343694, Example 58]	< 1	10	90
C=CC(=O)Nc1cc(N)c(OC)cc1N1CCC(N(C)C)CC1 [US20240343694, Example 59]	< 1	< 1	20
C=CC(=O)Nc1cc(N)c(OC)cc1N1CCC(N2CCN(C)CC2)CC1 [US20240343694, Example 60]	< 1	< 1	10
COC(=O)c1cnc(Cl)nc1Nc1cccc2c1N(S(C)(=O)=O)CCC2 [US20240343694, Example 61]	< 1	< 1	1
CC(C)OC(=O)c1cnc(Cl)nc1Nc1cccc2c1N(S(C)(=O)=O)CCC2 [US20240343694, Example 62]	–	–	3
C=CC(=O)Nc1cc(N)c(OC)cc1N(C)CCN1CCOCC1 [US20240343694, Example 63]	–	–	< 1
C=C(F)C(=O)Nc1cc(N)c(OC)cc1N(C)CCN(C)C [US20240343694, Example 64]	< 1	< 1	3
CS(=O)(=O)N1CCc2cccc(Nc3nc(Cl)ncc3Cl)c21 [US20240343694, Example 65]	< 1	< 1	15
CCS(=O)(=O)N1CCc2cccc(Nc3nc(Cl)ncc3Cl)c21 [US20240343694, Example 66]	< 1	< 1	5
